Results: ChEMBL document CHEMBL1201862, “PubChem BioAssay data set” (2004)
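Growth conditions: 96-well plates. Treatment: test compound, 48 hours, 5 concentrations. Analysis: linear interpolation between bracketing concentrations; unreached endpoints set to highest concentration. Here, GI50 denotes the concentration required for 50% inhibition of growth.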 Calls of active or inactive are those of the source. No stated cut-off is given here; in the data, active = GI50 up to about 1.1 µM and inactive = higher. Square brackets hold non-standard residues; d marks the D form. Peptide text beside a SMILES is read from it. * marks the point of attachment. Tyr(3-Br) = N[C@@H](Cc1ccc(O)c(Br)c1)C(=O)O; Boc = CC(C)(C)OC(=O)*

How the values were obtained:
Assay in all cases: DTP human tumour cell line panel, 48 h
CAKI-1 = test system: CAKI-1
CCRF-CEM = test system: CCRF-CEM
DU-145 = test system: DU-145
HCT-15 = test system: HCT-15
HT-29 = test system: HT-29
LOX IMVI = test system: LOX IMVI
NCI-H226 = test system: NCI-H226
OVCAR-8 = test system: OVCAR-8
PC-3 = test system: PC-3
SF-268 = test system: SF-268
SK-MEL-2 = test system: SK-MEL-2
SNB-19 = test system: SNB-19
T47D = test system: T47D
U-251 = test system: U-251
UACC-257 = test system: UACC-257
EKVX = test system: EKVX
IGROV-1 = test system: IGROV-1
RXF 393 = test system: RXF 393
RPMI-8226 = test system: RPMI-8226

SMILES	GI50 (CAKI-1)	GI50 (CCRF-CEM)	GI50 (DU-145)	GI50 (HCT-15)	GI50 (HT-29)	GI50 (LOX IMVI)	GI50 (NCI-H226)	GI50 (OVCAR-8)	GI50 (PC-3)	GI50 (SF-268)	GI50 (SK-MEL-2)	GI50 (SNB-19)	GI50 (T47D)	GI50 (U-251)	GI50 (UACC-257)	GI50 (EKVX)	GI50 (IGROV-1)	GI50 (RXF 393)	GI50 (RPMI-8226)
C=CC[C@@H]1C(=O)[C@@]2(O[Si](C(C)C)(C(C)C)C(C)C)CC[C@@H]1C[C@H]2NC(=O)OCC(Cl)(Cl)Cl	59.2 µM (inactive)	60 µM (inactive)	> 100 µM (inactive)	91.6 µM	> 100 µM (inactive)	41.5 µM (inactive)	> 100 µM (inactive)	> 100 µM (inactive)	32.9 µM (inactive)	> 100 µM (inactive)	60 µM (inactive)	> 100 µM (inactive)	> 100 µM (inactive)	> 100 µM (inactive)	43.8 µM (inactive)				
Nc1nc(Cl)c(N)c(NCC2(CO)CC(CCCc3ccccc3)C2)n1 (configuration not stated)	34.8 µM (inactive)	0.0451 µM (active)	68.7 µM (inactive)	51.5 µM		16.7 µM (inactive)	2.91 µM (inactive)		17.9 µM (inactive)	23 µM (inactive)	0.137 µM (active)	> 55.5 µM (inactive)	5.27 µM (inactive)	34.3 µM (inactive)	7.67 µM (inactive)	0.223 µM (active)	21.6 µM (inactive)		
O=C(/C=C/c1ccsc1)c1cccs1	27.3 µM (inactive)	18.5 µM (inactive)	> 100 µM (inactive)	18.7 µM	36.9 µM (inactive)		> 100 µM (inactive)	> 10 µM (inactive)	69.5 µM (inactive)	28.2 µM (inactive)		42.6 µM (inactive)	20 µM (inactive)	20.5 µM (inactive)	66.8 µM (inactive)	41.3 µM (inactive)	53.2 µM (inactive)	18.9 µM (inactive)	
[O-][s+]1c2c(Cc3ccccc3)c(Cc3ccccc3)c1CCc1cccc(c1)CC2	11.9 µM (inactive)	19.6 µM (inactive)	15.8 µM (inactive)	12.9 µM	11.9 µM (inactive)	14 µM (inactive)	19.1 µM (inactive)	13.3 µM (inactive)	13.3 µM (inactive)	15.6 µM (inactive)	17 µM (inactive)	14.6 µM (inactive)	6.68 µM (inactive)	13.9 µM (inactive)	14.1 µM (inactive)	13.2 µM (inactive)		3.86 µM (inactive)	
Cc1ccc(S(=O)(=O)Oc2ccc(OS(=O)(=O)c3ccc(C)cc3)c3c2C(=O)c2ccccc2C3=O)cc1	> 100 µM (inactive)	> 100 µM (inactive)	> 100 µM (inactive)	> 100 µM	> 100 µM (inactive)	> 100 µM (inactive)	> 100 µM (inactive)	> 100 µM (inactive)	> 100 µM (inactive)	> 100 µM (inactive)	> 100 µM (inactive)	54.6 µM (inactive)	> 100 µM (inactive)	> 100 µM (inactive)	> 100 µM (inactive)	> 100 µM (inactive)	> 100 µM (inactive)	23.6 µM (inactive)	
Cc1cc2c(cc1Cl)Sc1nnc(C)n1S2(=O)=O	15.6 µM (inactive)	8.53 µM (inactive)	22 µM (inactive)	11.2 µM	18.5 µM (inactive)	10.1 µM (inactive)	30.2 µM (inactive)	17.5 µM (inactive)	15 µM (inactive)	14.9 µM (inactive)		23.5 µM (inactive)	8.18 µM (inactive)	15.1 µM (inactive)	13.9 µM (inactive)	16 µM (inactive)	12.3 µM (inactive)	17.6 µM (inactive)	
CCOC(=O)NC(=S)c1ccc(O)c2ccccc12	44.2 µM (inactive)	8.63 µM (inactive)	> 100 µM (inactive)	36.6 µM	66.1 µM (inactive)	28.6 µM (inactive)		34.2 µM (inactive)	> 100 µM (inactive)	12.4 µM (inactive)	> 100 µM (inactive)	95.5 µM (inactive)	> 100 µM (inactive)	> 100 µM (inactive)	> 100 µM (inactive)	27.9 µM (inactive)	13.9 µM (inactive)		74.5 µM (inactive)
COC(=O)[C@H](Cc1ccc(O)c(Br)c1)NC(=O)[C@H](Cc1ccc(O)cc1)NC(=O)OC(C)(C)C (Boc-Tyr-[Tyr(3-Br)]-OMe)	> 100 µM (inactive)	23.8 µM (inactive)	61.9 µM (inactive)	21.6 µM	37.7 µM (inactive)	22.5 µM (inactive)	> 100 µM (inactive)	19.9 µM (inactive)	> 100 µM (inactive)	48.3 µM (inactive)	37 µM (inactive)	> 100 µM (inactive)	20.8 µM (inactive)		43.8 µM (inactive)	> 100 µM (inactive)	37 µM (inactive)		28.4 µM (inactive)
COc1ccc(N[C@H](C[S+]([O-])c2ccc(C)cc2)c2ccc(F)cc2)cc1 (some centres not stated)	> 100 µM (inactive)	> 100 µM (inactive)	96.6 µM (inactive)	27.5 µM	> 100 µM (inactive)	> 100 µM (inactive)		> 100 µM (inactive)	82.4 µM (inactive)	24.7 µM (inactive)	> 100 µM (inactive)	35.8 µM (inactive)	10.3 µM (inactive)	44.5 µM (inactive)	> 100 µM (inactive)	> 100 µM (inactive)	< 0.01 µM (active)	48.4 µM (inactive)	> 100 µM (inactive)
CSc1ccc(C2C(Cl)C(=O)N2NC(=O)c2c(Cl)c(Cl)c(Cl)c(Cl)c2-c2nc3ccccc3[nH]2)cc1 (configuration not stated)	14.9 µM (inactive)	2.48 µM (inactive)	15.8 µM (inactive)	19.1 µM	33.3 µM (inactive)	4.18 µM (inactive)	16.1 µM (inactive)	18.8 µM (inactive)	17.5 µM (inactive)	19.1 µM (inactive)	31.6 µM (inactive)	29.7 µM (inactive)	4.28 µM (inactive)		27.2 µM (inactive)	16.5 µM (inactive)	0.402 µM (active)	1.97 µM (inactive)	
CO[C@]12CC(=O)C3(C(C[C@H]4CC5CCC6=CC(=O)CC[C@]6(OC(C)=O)C5C[C@@]43C)C1)C1C[C@H]3[C@@H]4CCC5=CC(=O)CC[C@]5(OC(C)=O)[C@H]4CC[C@]3(C)C12 (some centres not stated)	> 100 µM (inactive)	> 100 µM (inactive)	> 100 µM (inactive)	> 100 µM	> 100 µM (inactive)	> 100 µM (inactive)		> 100 µM (inactive)	> 100 µM (inactive)	> 100 µM (inactive)	> 100 µM (inactive)	> 100 µM (inactive)	> 100 µM (inactive)	> 100 µM (inactive)	> 100 µM (inactive)	> 100 µM (inactive)	> 100 µM (inactive)		> 100 µM (inactive)
COC1=C(OC)C(=O)C(Cc2c(Cl)nc3sc(C)cn23)=C(C)C1=O	24.5 µM (inactive)	3.02 µM (inactive)	22.1 µM (inactive)	24.9 µM	17.9 µM (inactive)	11.7 µM (inactive)		19.1 µM (inactive)	16 µM (inactive)	16.6 µM (inactive)	22.3 µM (inactive)	17.9 µM (inactive)	23.9 µM (inactive)	17.9 µM (inactive)	10.4 µM (inactive)	17.3 µM (inactive)	17.8 µM (inactive)	20.3 µM (inactive)	11.2 µM (inactive)
